These results are taken from patent US12227512B2, “Benzimidazoles and methods of using same” (priority 2019, dated 2025).

Data set [1] has as its system Gli-luciferace activity in the SUFU-KO-light cells. Put plainly: SUFU-KO-Light assay, inhibition of Gli-luciferase activity. Format: cell-based. From the text:
IC50 SUFO-KO-Light values are for inhibition of Gli-luciferace activity in the SUFU-KO-light cells developed by the James Chen laboratory at Stanford University.

In data set [2] the test system is cap-dependent and Myc 5'-UTR cap-independent translation. Put plainly: Dual luciferase Myc 5' UTR translation reporter in Huh 7.5 cells. It is filed as cell-based. As to conditions: Renilla (5' cap) / firefly (Myc 5' UTR) luciferase. From the text:
The dual luciferase plasmid construct described by Willis and co-workers was transfected into Huh 7.5 cells. The Renilla luciferase cistron is translated from a 5′ cap, then the Myc 5′ UTR is placed in front of firefly luciferase to evaluate cap-independent translation from the same mRNA. […] This assay is a proxy for c-Myc translation activity. See also Stoneley et al. (2000) Nucleic Acids Res. 28: 687-94.

The subject of a further data set is Gli-1 and c-Myc. The data set is described as follows: Western blot of Gli-1 and c-Myc in SUFU-KO-Light cells. It is filed as cell-based. As to conditions: 48 hours, immunoblotting.
Another data set concerns c-Myc and n-Myc. The data set is described as follows: Western blot for c-Myc and n-Myc in Huh7.5 cells. It is filed as cell-based. As to conditions: 2 μM compound, Western blotting. As for the experimental part: Referring to FIG. 8, the ability of Isis-11 (racemic) to inhibit c-Myc and n-Myc was evaluated. Huh7.5 cells were treated with 2 μM compound or no compound as a control. The cells were lysed and harvested at the indicated times. Western blotting was performed using antibodies as shown after serial stripping. […] YB-1 is known to be part of a positive feedback loop with Myc and is also affected by Myc inhibition.

Data set [3] concerns Hedgehog signaling (Gli transcription factors). Put plainly: Hedgehog pathway inhibition, cell-based reporter sensitive to Shh ligand. As to conditions: read-out: EC50, hedgehog inhibition potency.
Data set [4] shares this test system. Put plainly: Hedgehog pathway inhibition, cell-based reporter derived from fibroblast SUFU knockouts. As to conditions: read-out: EC50, hedgehog inhibition potency.
The subject of data set [5] is Raji (Burkitt Lymphoma cell line). The data set is described as follows: Raji cell viability / proliferation. As to conditions: Homo sapiens, read-out: IC50, Raji cell proliferation.
In the next data set the test system is CML CD34+ cells. Put plainly: Colony-forming assay, Chronic Myeloid Leukemia. As to conditions: for CML CD34+ colony formation: 0 μM = 100.
Data set [6] can be described thus: Neutral Red (Toxicity) of the antiviral screening. As to conditions: human.
A short description of data set [7]: Neutral Red (Toxicity) of the antiviral screening. As to conditions: African green monkey.
Data set [8] has as its system Dengue virus 2 New Guinea C. The data set is described as follows: In vitro antiviral screening, Visual (Virus yield reduction). As to conditions: Huh7; for SI90: Visual (Virus yield reduction)/Neutral Red (Toxicity); for EC90: Dengue virus, Visual (Virus yield reduction).
Data set [9] concerns Zika MR766. The description is as above. As to conditions: Vero 76; for SI90: Assay No. 3, Visual (Virus yield reduction)/Neutral Red (Toxicity); for EC90: Zika virus.
Data set [10] has as its system Dengue virus 2 New Guinea C. Put plainly: In vitro antiviral screening, Neutral Red (Cytopathic effect). As to conditions: Huh7; for SI50: Neutral Red (Cytopathic effect/Toxicity); for EC50: Dengue virus, Neutral Red (Cytopathic effect).
The test system of data set [11] is Zika MR766. The data set is described as above. As to conditions: Vero 76; for SI50: Assay No. 3, Neutral Red (Cytopathic effect/Toxicity); for EC50: Zika virus.
Data set [12] relates to Rift Valley Fever Virus (RVFV). As to conditions: reported value; cited from earlier work.
In the next data set the test system is MB002 cells. The data set is described as follows: MTT assay, cell proliferation. Format: cell-based. As to conditions: MB002, MTT, dose for Fa=0.5 inhibition (50%).
Data set [13] concerns SUFU-KO-Light cells expressing Gli-luciferase. Put plainly: Dose-effect curves, dual-Glo luciferase, Compusyn. As to conditions: SUFU-KO-Light, Gli-luciferase, Fa=0.5. It is filed as cell-based.
Setting [14] is: Huh-7, Control drug, Assay No. 1.
Setting [15] is: Huh-7, Control drug, Assay No. 2.
The mark [16] stands for this setting: inhibition of Gli-luciferase activity, read-out: IC50 (μM) SUFU-KO-Light.

Each structure is given as a SMILES string. Read-outs that look alike come from different tables or passages of the source.

Regarding `CN(C)CCCn1c(N)nc2ccc3c(c21)CC(CN(C)C)O3` (racemic) [Isis-11], the IC50 in [1] (read-out: IC50 (μM) SUFU-KO-Light, inhibition of Gli-luciferase activity) worked out at 0.2 µM; in data set [5], 500 nM. In addition, the “effect on cap-dependent and cap-independent translation” value in data set [2] was “inhibits both cap-dependent and cap-independent translation”. Also, the “Gli-1 and c-Myc levels” value in the data set with Gli-1 and c-Myc was “decrease both Gli-1 and c-Myc”. Also, the “c-Myc and n-Myc protein” value with c-Myc and n-Myc is reported as “inhibited at the protein level”. Moreover, the EC50 was ~100 nM in data set [3]; ~100 nM in data set [4]; ~150 nM in the data set on CML CD34+ cells (read-out: EC50, CML CD34+ colony formation); ~150 nM in the data set with CML CD34+ cells (read-out: EC50, inhibition of colony formation); 1800 nM in [10] (Huh-7, Assay No. 1); 490 nM in data set [10] (Huh-7, Assay No. 2). In the data set on Zika MR766 [11], this compound returned an EC50 of 880 nM. The colony formation result with CML CD34+ cells (0.8 μM) is “completely inhibited”. For the same compound, the “CML CD34+ colony formation” value in the data set on CML CD34+ cells (14-290, 0.1 μM) is recorded as 91.81; with CML CD34+ cells (14-290, 0.2 μM), 19.40; with CML CD34+ cells (14-290, 0.4 μM), 12.50; in the data set with CML CD34+ cells (14-290, 0.8 μM), 0; in the data set on CML CD34+ cells (14-290, 1.6 μM), 0; with CML CD34+ cells (15-186, 0.1 μM), 87.06. Further, the “CML CD34+ colony formation” value with CML CD34+ cells (15-186, 0.2 μM) worked out at 52.10; with CML CD34+ cells (15-186, 0.4 μM), 38.81; in the data set on CML CD34+ cells (15-186, 0.8 μM), 0; in the data set with CML CD34+ cells (15-186, 1.6 μM) it was 0; in the data set on CML CD34+ cells (AVG, 0.1 μM), 89.44; with CML CD34+ cells (AVG, 0.2 μM), 35.75. Moreover, the “CML CD34+ colony formation” value was 25.66 with CML CD34+ cells (AVG, 0.4 μM); 0 in the data set on CML CD34+ cells (AVG, 0.8 μM); 0 with CML CD34+ cells (AVG, 1.6 μM). Further, the CC50 in data set [6] (CC50, Assay No. 1, Neutral Red (Cytopathic effect/Toxicity) line) is 6900 nM; in data set [6] (CC50, Assay No. 1, Neutral Red (Toxicity), line of the virus yield reduction assay) it was 6900 nM; in data set [6] (CC50, Assay No. 2, Neutral Red (Cytopathic effect/Toxicity) line), 2400 nM; in [6] (CC50, Assay No. 2, Neutral Red (Toxicity), line of the virus yield reduction assay) it was 2400 nM; in [7] it was 20000 nM. The SI90 in data set [8] (Assay No. 1) was 2.6; in data set [8] (Assay No. 2), 6.3; in the data set on Zika MR766 [9], 22. Besides, the EC90 in data set [8] (Huh-7, Assay No. 1) was 2700 nM; in data set [8] (Huh-7, Assay No. 2), 380 nM; with Zika MR766 [9] it was 930 nM. For the same compound, the figures for the SI50 (in data set [10] (Assay No. 1); in data set [10] (Assay No. 2); in the data set with Zika MR766 [11]) were 3.8, 4.9 and 23, respectively.

Take `Nc1ncnc2c([C@H]3N[C@@H](CO)[C@H](O)[C@@H]3O)c[nH]c12` [BCX4430]: the EC50 in data set [12] was 41600 nM.

For the compound `N.N.[Cl][Pt][Cl]` [Cisplatin, reference compound], in the data set with MB002 cells (read-out: Dose Cis), the IC50 stood at 780 nM.

Turning to `O=c1cnn([C@@H]2O[C@H](CO)[C@@H](O)[C@H]2O)c(=O)[nH]1` [Compound 6-azauridine, 6-azauridine, reference compound], the CC50 in data set [6] (Huh7 cells, CC50, Control drug, Assay No. 1, Neutral Red (Cytopathic effect/Toxicity) line) is > 100 µg/mL; in data set [6] (Huh7 cells, CC50, Control drug, Assay No. 1, Neutral Red (Toxicity), line of the virus yield reduction assay), > 100 µg/mL; in [6] (Huh7 cells, CC50, Control drug, Assay No. 2, Neutral Red (Cytopathic effect/Toxicity) line), 27 µg/mL; in data set [6] (Huh7 cells, CC50, Control drug, Assay No. 2, Neutral Red (Toxicity), line of the virus yield reduction assay), 27 µg/mL; in data set [7] (Vero 76 cells), 26.5 µg/mL. The values for the SI90 (in data set [8] (Assay No. 1); in data set [8] (Assay No. 2); in the data set with Zika MR766 [9]) were >10, 15 and 0, respectively. Further, the EC90 in data set [8] (setting [14]) is 10 µg/mL; in data set [8] (setting [15]) it was 1.8 µg/mL; with Zika MR766 [9], > 26.5 µg/mL. In addition, the SI50 in [10] (Assay No. 1) was >19; in [10] (Assay No. 2), 15; in the data set on Zika MR766 [11] it was 40. The EC50 in data set [10] (setting [14]) is 5.3 µg/mL; in data set [10] (setting [15]), 1.8 µg/mL; with Zika MR766 [11], 0.66 µg/mL.

Consider `CN(C)CC1COc2ccc3nc4n(c3c2C1)CC(CN(C)C)CN4` (stereo not drawn) [IBIS-560146], for which, in data set [1] (setting [16]), the IC50 was > 2 µM.

For the compound `CC(C)n1nc(-c2ccc3oc(N)nc3c2)c2c(N)ncnc21` [Ink-128, reference compound], the IC50 in the data set on MB002 cells (read-out: Dose Ink) was determined as 60 nM. In addition, the EC50 stood at 6 nM in data set [13] (read-out: EC50 as single agent) and 6.13 nM in data set [13] (unit from FIG. 15 legend, read-out: Dose Ink).

On to `CN(C)CCCn1c(N)nc2ccc(OCCN(C)C)cc21` [Isis-4], for which the IC50 in [1] (setting [16]) came out at 10 µM.

With `CN(C)CCCn1c(N)nc2ccc3c(c21)CC(CN(C)C)CO3` (stereo not drawn) [Isis-12], the IC50 in data set [1] (setting [16]) was 1.5 µM.

Take `CN(C)CC1CNc2nc3ccc4c(c3n2C1)CC(CN(C)C)O4` (stereo not drawn) [Isis-075]: in data set [1] (setting [16]), the IC50 worked out at 0.36 µM.

In the case of `Cc1sc2c(c1C)C(c1ccc(Cl)cc1)=N[C@@H](CC(=O)OC(C)(C)C)c1nnc(C)n1-2` [JQ1, reference compound], in the data set on Gli-1 and c-Myc, the “Gli-1 and c-Myc levels” value was “decrease both Gli-1 and c-Myc”.
